Reference: PMC9143043, “Synthesis and Biological Evaluation of 5′-O-Fatty Acyl Ester Derivatives of 3′-Fluoro-2′,3′-dideoxythymidine as Potential Anti-HIV Microbicides” (Molecules, 2022)
Where two headings read alike, the source gives them in different places.

Key:
[1] = system: HIV-1 strain IIIB (lymphocytotropic strain); test: Single-round infection assay, cell-free X4 virus (lymphocytotropic strain); type: cell-based; details: read-out: (X4) EC50, Table 2, single-round infection assay
Experimental: (§1) Anti-HIV activities of the compounds were evaluated according to the previously reported procedure. In summary, the HeLa (Human cervical carcinoma: ATCC CCL-2.1) cell line was used to measure the inactivation of both the cell-free virus preparations and virus-infected cell preparations. The cells were plated in culture plates 24 h prior to each experiment. Cell-free viral preparations of HIV-1 strains IIIB (lymphocytotropic strain) and BaL (monocytotropic strain) were used for the cell-free assay. For the cell-associated assay, the SulT1 cells were infected with IIIB virus 5 days prior to the experiment. Cell-free virus and virus-infected cells were mixed with different compounds and diluted to make different concentrations. The mixture was further diluted with the buffer and added to the HeLa cells.

[2] = system: cell-associated HIV-1 IIIB (infected SulT1 cells); test: Cell-associated transmission assay (IIIB); type: cell-based; details: Human immunodeficiency virus 1, IIIB, read-out: (CA) EC50, Table 2; cell-associated transmission assay (IIIB)
Experimental: as §1

[3] = Log D by liquid-liquid distribution chromatography; type: physicochemical; details: octanol-coated column with octanol-saturated mobile phases, pH 7.4
Experimental: Physicochemical properties including pKa, Log D, and solubility were determined for 5 (as a model compound). […] It was not possible to measure the partition coefficient (Log P) of the fatty acyl derivatives of FLT and AZT in a standard n-octanol/water mixture because of the insolubility of the compounds in water. The cLog P value was calculated as 5.23 using ChemDraw. […] Since most of 5 is in its neutral form, the Log D value will correspond to the Log P value.
The Log P of 5 was initially investigated by the pH-metric (potentiometric) method. The sample was titrated in three triple titrations from pH 2.5 to pH 11.9 at concentrations of 0.7–1.1 mM in various ratios of octanol/water. The results indicated high sample lipophilicity, although the Log P could not be determined due to the apparent pKa in octanol shifting out of the measurable range. Therefore, the Log D of 5 at pH 7.4 was measured as 5.04 using liquid–liquid distribution chromatography. The Profiler LDA is an isocratic chromatography system that uses an octanol-coated column with octanol saturated mobile phases adjusted to pH 7.4. […]

HIV-1 4755-5 MDR (B-MDR) = test: PBMC multi-round infection assay, resistant isolate 4755-5; type: cell-based
Experimental: (§2) Based on a preliminary screening, conjugates 5 and 8 were evaluated for their ability to inhibit a drug-resistant virus in a peripheral blood mononuclear cell (PBMC) assay. In this assay, FLT, 5, and 8 were tested against B- and C-wild type and A-17 and 4755–5 multidrug-resistant (MDR) clinical isolates of HIV-1, where compounds were incubated with PBMCs for 6 h and then washed off before the addition of the virus and further culture for 7 days.
(§3) For the assessment of compounds against the wild type (WT; R5; clones = 94US3393IN [B subtype] and 98USMSC5016 [C subtype]) and drug-resistant (clones = 4755−5 and A17) HIV-1 clinical isolates, PHA-P stimulated cells from at least two normal donors were pooled, diluted in fresh media, and plated in the interior wells of a 96-well round-bottom microplate. Pooling PBMCs from more than one donor was used to minimize the variability observed between the individual donors, which results from the quantitative and qualitative differences in HIV infection and overall response to the PHA and IL-2 of primary lymphocyte populations. Each plate contained virus/cell control wells (cells + virus), experimental wells (drug + cells + virus), and compound control wells (drug + media, no cells, necessary for MTS monitoring of cytotoxicity). Test drug dilutions were prepared in microtiter tubes, and each concentration was placed in appropriate wells. Following the addition of the drug dilutions to the PBMCs, a predetermined dilution of virus stock was then placed in each test well (final MOI ≅ 0.1). Because HIV-1 is not cytopathic to PBMCs, the same assay plate can be used for both the antiviral efficacy and cytotoxicity measurements. Compounds were incubated with virus and cells in a 96-well format for 6 h. The cells were then washed by removing 75% of the medium (150 μL) and replacing it with 150 μL of fresh (no drug) medium. The plates were then centrifuged (∼200 g) for 10 min, after which 150 μL of the medium was removed, and an additional 150 μL of fresh medium was added to each well and further incubated for 6 days or until peak reverse transcriptase (RT) activity was detected. A microtiter plate-based RT reaction was utilized. Incorporated radioactivity (counts per minute, CPM) was quantified using standard liquid scintillation techniques. Compound IC50 (50%, inhibition of virus replication) was calculated using statistical software and regression analysis. A cellular uptake study was conducted for fluorescence conjugates 23 and 24 using a previously published procedure with minor modifications. All of the experiments were conducted in triplicate.

HIV-1 = test: Anti-HIV activity overall (cell-free and cell-associated assays) and antiviral index; type: cell-based
Excerpt: Table 2, Table 3 and Table 4 illustrate the anti-HIV-1 activities against the cell-free, cell-associated, and multidrug-resistant virus and sperm inhibiting properties of the selected compounds. In summary, the anti-HIV activity of 5′-substituted derivatives of FLT and AZT (5–18) was dependent on the nature of the 5′-substituent. […] None of the other esters were active against cell-associated virus. […] The difference in the activity of fatty acyl derivatives of FLT compared to each other and FLT may be due to their differences in the rate of uptake and intracellular hydrolysis.
By design, the ester moiety in the conjugates needs to be hydrolyzed to render parent nucleosides and fatty acids to produce anti-HIV activity. The anti-HIV activities of 5′-O-ether substituted FLT and AZT (3 and 4, Scheme 2) with a stable tetradecanyl (myristyl) group were compared with hydrolyzable 5′-O-ester substituted FLT and AZT (6 and 7).
as §1

[4] = system: HIV-1 94US3393IN (B-Wild Type); test: PBMC multi-round infection assay, clinical isolate 94US3393IN; type: cell-based; details: Human immunodeficiency virus 1
Experimental: as §2, §3

[5] = Human immunodeficiency virus 1, PBMC

With `Cc1cn([C@H]2C[C@H](F)[C@@H](COC(=O)CCCCCCCCCCCN=[N+]=[N-])O2)c(=O)[nH]c1=O` [Compound 5, 3′-fluoro-2′,3′-dideoxy-5′-O-(12-azidododecanoyl)thymidine] the EC50 ([1]; Human immunodeficiency virus 1, IIIB) was at most 1000 nM, the EC50 [1] was 900 nM and the EC50 [2] was 12600 nM. The chromatographic logD [3] was 5.04, the IC50 (HIV-1 4755-5 MDR (B-MDR); [5]) was 39.6 nM and the IC90 (HIV-1 4755-5 MDR (B-MDR); [5]) was 507 nM. The “fold more potent than FLT against 4755-5” value (HIV-1 4755-5 MDR (B-MDR); versus FLT IC50) was at least 2.7 fold, the “anti-HIV activity (in words)” value (HIV-1) was “significant anti-HIV activity at noncytotoxic concentrations” and the “antiviral index, times better than AZT” value (HIV-1; versus AZT) was over 30 times. For the same compound, the “antiviral index, times better than FLT” value (HIV-1; versus FLT) was over 4 times, the IC50 [4] was 1.1 nM and the IC90 [4] was 6.4 nM.
